# Values joined by “and” are separate entries in the source; they are usually repeats but may differ in a detail not shown here. Equal entries are not always repeated.
# Assays:
# [1] = system: cell surface receptors of immune cells (ACS); test: Adsorption of enzyme fragmented dHSA on affinity column with biotinylated cell surface proteins (ACS), MALDI-TOF ms; type: binding, human; settings: for Per cent adsobed: Table 6 A, molecular weight 700-3600 Da
# Procedure: Based on the observation that immunoregulatory peptide sequences are present in serum albumin, there is the possibility that other sequences than the epitope of mAb A have immunoregulatory function. Therefore an artificial cell surface (ACS) was prepared as described in materials and methods. […]
# To remove unfragmented albumin and enzyme, the sample was ultra filtered through an Amicon Ultra 4 (mw cut-off of 5000) or a Centriplus (mw cut-off 10000) centrifugal filter (Millipore AB, Solna, Sweden). The filtrate, containing fragmented dHSA without enzymes, was collected and diluted with PBS with Ca and Mg (GIBCO).
# Buffy coats generated from 450 ml blood each was collected from 4 healthy donors. Erythrocytes were removed by sedimentation on 2% dextran T500 solution (Amersham Pharmacia Biotech AB, Uppsala Sweden) in 0.9% NaCl. Mononuclear cells (PBMC) were then isolated by Ficoll-Paque Plus (GE Healthcare Bioscience AB Sweden) density gradient centrifugation. The PBMC were then suspended in phosphate buffered saline (PBS) containing Ca and Mg (GIBCO) at a concentration of 10×10^6/ml. EZ Link Sulfo-NHS-biotin (Pierce USA) was added at a final concentration of 0.2 mg/ml and the mixture incubated on a shaker at room temperature for 10 min. Excess biotin was then removed by washing the PBMC in PBS. Biotinylated PBMC were then lysed by adding 1.0 ml ice-cold lysing buffer (50 mM Tris-HCL, pH 7.5, with 0.15 M NaCl, 5 mM MgCl2 containing 100 mM Octyl glucoside and 1 mM Phenylmethylsulfonyl fluoride) per 2×10^7 pelleted cells with gentle shaking, then incubated for 30 min. on ice. Debris was removed by centrifugation at 5000×g at 4° C. for 10 min and the supernatants was collected and pooled from all four donors. The lysate was then stored at −70° C. in polypropylene plastic tubes.
# This amount of lysate corresponds to 36×10^7 mononuclear cells. It was added to a 1 ml Hitrap Streptavidin HP affinity column (Amersham Biosciences). To block possible remaining free biotin, 5 ml of 0.1 M glycine (Sigma) was added to the column. Unsaturated streptavidin on the column was then reacted with 150 ug biotin (Sigma) in binding buffer. The column was carefully washed with PBS and stored in PBS with 0.1% NaN3 at 4° C. until use.
# 27 ml biotinylated cell lysate in binding buffer (corresponding to 54×10^7 mononuclear cells) was added to 1.5 ml washed Streptavidin Sepharose HP (Amersham Biosciences). To block possible remaining free biotin, 25 ml of 0.1 M glycine (Sigma) was added to the Streptavidin Sepharose. Unsaturated streptavidin was then reacted with 225 μg biotin (Sigma) in binding buffer. The Streptavidin Sepharose was carefully washed in PBS. One ml of the biotinylated cell lysate coupled Streptavidin Sepharose was then packed in an empty column (Tricorn Empty High Performance Column, Amersham Bioscience) and washed with phosphate buffered saline (PBS) containing Ca and Mg (GIBCO).
# The flow-through was collected with consideration taken to void volume and dilution of adsorbed sample by collecting in small portions of 0.2 ml. Thirty ul of each sample, including a control sample that has not been adsorbed, were dried in a Speed-Vac centrifuge.
# Dried samples were reconstituted in 10 ul of 0.1% TFA. Zip Tip pipette tips (Millipore, USA) containing C18 reversed-phase media were used for desalting reconstituted samples. […] For the analysis of samples in the mass range 1500-9000 Da, one μl of each Zip Tip eluted sample was mixed with 1 μl of sinapinic acid ([…]). […] Mass identity search of resulting spectra was performed in the SwissProt or NCBI databases using MS-Fit.
# PBMCs = test: PHA-induced proliferation of PBMC in the presence of albumin peptides and/or dHSA; type: cell-based, human
# Source text: Venous blood was drawn from healthy volunteers or from cancer patients in glass vacuum tubes with acid dextrose citrate solution A as anti-coagulant (Vacutainer, Becton Dickinson, Franklin Lakes, N.J.). Erythrocytes were removed by sedimentation on 2% dextran T500 solution (Amersham Pharmacia Biotech AB, Uppsala, Sweden) in 0.9% NaCl (this step was omitted for cultures with PHA-stimulation-see below). […] For cell cultures with PHA-stimulation, PBMC were washed in Hank's Balanced Salt Solution (HBSS) with 10% autologous plasma instead of RPMI/2% HSA. […] The cell suspension was stained with Turk's solution and the number of lymphocytes and monocytes in the PBMC preparation were counted in a hemocytometer. PBMCs were suspended in RPMI/2% HSA and the cell concentration adjusted to 5×10^5 lymphocytes/ml.
# 100 μl of the cell suspension were seeded into round-bottomed microtiter plates (Corning, N.Y., USA) followed by 100 μl of culture medium consisting of RPMI 1640 (Flow Laboratories, Irvine, Scotland) supplemented with 200 IU/ml Penicillin, 200 μg/ml Streptomycin (Flow laboratories) and 20% heat inactivated autologous serum. Phytohemagglutinin (PHA-P, Sigma Chemical Co, St. Louis, Mo.) at a final concentration of 5 or 10 μg/ml was then added.
# All culture conditions were set up in triplicate wells. […] Mean values of disintegrations per minute (dpm) of triplicates were used for the calculations.
# PBMC = test: LPS-induced IL-6 production by PBMC, effect of peptides; type: cell-based, human; settings: PBMCs from one healthy control; lowest peptide concentration
# Procedure: 100 μl of culture medium consisting of RPMI1640 supplemented with 200 IU/ml penicillin, 200 μg/ml streptomycin, 4 mM L-glutamine (Sigma Chemical, Mo., US) and 20% fresh heat-inactivated autologous serum were added to un-coated or -pre-coated microtiter plates followed by 100 μl of PBMC suspension (5×10^4 lymphocytes) in RPMI/2% HSA with peptides at the indicated concentrations. Lipoplysaccharide (LPS, Sigma Chemical Co, MO, US) was added at a final concentration of 0.05 ng/ml. […] All assay conditions were set up in triplicate wells. Supernatants (SNs) were harvested after 24 hrs and residual cells were removed by centrifugation in a refrigerated centrifuge (Beckman) at 2600×g for 5 minutes. SNs were frozen and stored at −70° C. IL-6 in cell culture SNs was measured by ELISA using the DuoSet® ELISA development kit for human IL-6 (R&D Systems Europe, Ltd., Abingdon, UK) following the manufacturer's recommended procedures. The lower limit of detection was 3.1 pg/ml. Samples were analysed as mean of triplicate wells.
# [2] = Table 6 B, ASP-DHSA, molecular weight 3200-9000 Da
# [3] = Table 5 A, peptides generated by trypsin degradation of dHSA
# [4] = Table 5 B, trypsin peptides selected for synthesis
# [5] = PHA 5 μg/ml, peptides 10 μg/ml, 5 healthy controls and 4 patients
# [6] = patient P46, lowest peptide concentration
# [7] = peptides 10 μg/ml, lower dHSA concentrations
# [8] = peptides 10 μg/ml, two highest dHSA concentrations
substance,measurement,setting,value
RVTKC CTESLVNRRPCFSALEVDETYVPKEFNAETFTFHA (RVTKCCTESLVNRRPCFSALEVDETYVPKEFNAETFTFHA; HOMO SAPIENS) [ASP-N fragment of dHSA],Per cent adsorbed,[1]; [2],1.00 Per cent
"YICENQDSISSK [287-298, tryptic peptide of dHSA]",Per cent adsorbed,[1]; [3],0.03 Per cent
"LKECCEKPLLEK [299-310, tryptic peptide of dHSA]",Per cent adsorbed,[1]; [3],0.36 Per cent
ICTLSEKERQIKKQ TALVELVKHK PKATKEQLKA VM (ICTLSEKERQIKKQTALVELVKHKPKATKEQLKAVM) [ASP-N fragment of dHSA],Per cent adsorbed,[1]; [2],1.00 Per cent
YLSVVLNQLCVLHEK TPVS DRVTKC CTESLVNRRP CFSALEV,Per cent adsorbed,[1]; [2],0.37 Per cent
DKLCTVATLRETYGEM [ASP-N fragment of dHSA],Per cent adsobed,[1]; ASP-DHSA,0.65 Per cent
LGE ENFKALVLIAFAQYLQQCPFEDHVKLVNEVTEFAKTCVA (LGEENFKALVLIAFAQYLQQCPFEDHVKLVNEVTEFAKTCVA; HOMO SAPIENS) [ASP-N fragment of dHSA],Per cent adsorbed,[1]; [2],1.00 Per cent
"CCAAADPHECYAK [384-396, tryptic peptide of dHSA]",Per cent adsorbed,[1]; [3],0.32 Per cent
RPCFSALEVDETYVPK [tryptic peptide of dHSA],Per cent adsorbed,[1]; [3],0.42 Per cent
"KYLYEIAR [(K)KYLYEIAR (R), tryptic peptide of dHSA]",Per cent adsorbed,[1]; [3],0.71 Per cent
same,Per cent adsorbed,[1]; [4],0.71 Per cent
VF LGMFLYEYARRHPDYSVVLLLRLAKTYETTLEKCCAAA (VFLGMFLYEYARRHPDYSVVLLLRLAKTYETTLEKCCAAA; HOMO SAPIENS) [ASP-N fragment of dHSA],Per cent adsorbed,[1]; [2],1.00 Per cent
"AAFTECCQAADK [(K)AAFTECCQAADK (A), tryptic peptide of dHSA]",Per cent adsorbed,[1]; [3],0.29 Per cent
YSVVLL LRLAKTYETT LEKCCAAADP HECYAKVF (YSVVLLLRLAKTYETTLEKCCAAADPHECYAKVF; HOMO SAPIENS) [ASP-N fragment of dHSA],Per cent adsorbed,[1]; [2],1.00 Per cent
"QNCELFEQLGEYK [414-426, tryptic peptide of dHSA]",Per cent adsorbed,[1]; [3],0.20 Per cent
same,Per cent adsorbed,[1]; [4],0.20 Per cent
NEETFLKKYLYE [peptide 2605],effect on PHA induced proliferation of PBMCs,"PBMCs; PBMCs from K92, three peptide concentrations",biphasic response pattern
same,effect on dHSA modulated PHA stimulated proliferation,"PBMCs; PBMCs from two healthy controls, two PHA concentrations",inhibited the stimulatory activity of dHSA
same,effect on PHA induced proliferation of PBMCs,PBMCs; [5],inhibitory or stimulatory effects in one control each and one patient each
same,effect on PHA induced proliferation of PBMCs,PBMCs; [6],clear stimulatory activity
same,effect on dHSA enhanced PHA induced proliferation,PBMCs; [7],stimulated the proliferative rate
same,effect on dHSA enhanced PHA induced proliferation,PBMCs; [8],significantly inhibited the stimulatory activity
DDKETCFAEEGKKLVAASQAALGL [ASP-N fragment of dHSA],Per cent adsobed,[1]; ASP-DHSA,1.00 Per cent
VHTECCHGDLLECADDR [tryptic peptide of dHSA],Per cent adsorbed,[1]; [3],0.13 Per cent
SISSKLKECCEKPLLEK SHClAEVEN DEMPA (SISSKLKECCEKPLLEKSHCIAEVENDEMPA; HOMO SAPIENS) [ASP-N fragment of dHSA],binding to ACS,[1]; asparaginase degraded dHSA,contradictory results
ELFEQLGEYKF [peptide 2608],effect on LPS induced IL-6 production,PBMC,inhibitory
same,effect on PHA induced proliferation of PBMCs,PBMCs; [5],stimulatory effect in ¼ controls whereas ¾ patients were stimulated
same,effect on PHA induced proliferation of PBMCs,PBMCs; [6],clear stimulatory activity
same,effect on dHSA enhanced PHA induced proliferation,PBMCs; [7],stimulated the proliferative rate
same,effect on dHSA enhanced PHA induced proliferation,PBMCs; [8],significantly inhibited the stimulatory activity
DSISSKLKECCEKPLLEKSHCIAEVEN [ASP-N fragment of dHSA],Per cent adsobed,[1]; ASP-DHSA,0.65 Per cent
"NECFLQHK [(R)NECFLQHK (D), tryptic peptide of dHSA]",Per cent adsorbed,[1]; [3],0.22 Per cent
"ETYGEMADCCAK [106-117, tryptic peptide of dHSA]",Per cent adsorbed,[1]; [3],-0.08 Per cent
"SLHTLFGDK [089-097, tryptic peptide of dHSA]",Per cent adsorbed,[1]; [3],0.36 Per cent
DRVTKCCTESLVNRRPCFSALEV [ASP-N fragment of dHSA],Per cent adsobed,[1]; ASP-DHSA,0.87 Per cent
DHVKLVNEVTEFAKTCVA [ASP-N fragment of dHSA],Per cent adsobed,[1]; ASP-DHSA,1.00 Per cent
KLCT VATLRETYGE MA DCCAKQEP ERNECFLQHK (KLCTVATLRETYGEMADCCAKQEPERNECFLEHK; HOMO SAPIENS) [ASP-N fragment of dHSA],Per cent adsorbed,[1]; [2],1.00 Per cent
LAKYICE NQDSISSKLK ECCEKPLLEK SHCIAEVEN (LAKYICENQDSISSKLKECCEKPLLEKSHCIAEVEN) [ASP-N fragment of dHSA],Per cent adsorbed,[1]; [2],1.00 Per cent
"AVMDDFAAFVEK [570-581, tryptic peptide of dHSA]",Per cent adsorbed,[1]; [3],0.23 Per cent
VPQVSTPTLVEVSR [tryptic peptide of dHSA],Per cent adsorbed,[1]; [3],0.59 Per cent
KLVNEVTEFAKT [peptide 2604],effect on LPS induced IL-6 production,PBMC,stimulatory
DETYVPKEFNAETFTHA [ASP-N fragment of dHSA],Per cent adsobed,[1]; ASP-DHSA,0.86 Per cent
YKAAFTECCQAADK [tryptic peptide of dHSA],Per cent adsorbed,[1]; [3],-0.37 Per cent
"QEPERNECFLQHK [(K)QEPERNECFLQHK (D), tryptic peptide of dHSA]",Per cent adsorbed,[1]; [3],0.26 Per cent and 0.18 Per cent
"FKDLGEENFK [(R)FKDLGEENFK (A), tryptic peptide of dHSA]",Per cent adsorbed,[1]; [3],0.08 Per cent

# Source: patent publication US9796777B2, “Methods of treating malignant tumors” (Canimguide Therapeutics AB, priority 2007, dated 2017)
